From US20210325406A1 (priority 2018, published 2021)
“And” between values parts separate entries of the source, which are not always exact repeats. Identical values can stand only once. “Also recorded” adds a separate entry of the source. Like-named read-outs stand apart in the source and are kept apart here.

Tests used:
Au(III) embedded MspA-M [1] = biological target: T1, Au(III) embedded MspA-M (Mycolicibacterium smegmatis, UniProt A0QR29, D117N/D118M/D120N/D145R/D161R/E166K); type: binding
Au(III) embedded MspA-M [2] = biological target: T1, Au(III) embedded MspA-M; type: binding; remark: listed apart in the source
[3] = biological target: [AuCl4]− embedded MspA-M nanopore (Mycolicibacterium smegmatis, UniProt A0QR29, D117N/D118M/D120N/D145R/D161R/E166K)
Sequence of [AuCl4]− embedded MspA-M nanopore (A0QR29 28-211 D117N/D118M/D120N/D145R/D161R/E166K): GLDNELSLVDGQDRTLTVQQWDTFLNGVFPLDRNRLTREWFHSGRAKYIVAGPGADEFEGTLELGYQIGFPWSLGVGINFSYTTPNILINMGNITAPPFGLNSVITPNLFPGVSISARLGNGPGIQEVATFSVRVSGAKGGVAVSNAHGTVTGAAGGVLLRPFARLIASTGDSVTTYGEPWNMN

T1 sequence (A0QR29 28-211 D117N/D118M/D120N/D145R/D161R/E166K limits assumed): as the sequence (A0QR29 28-211 D117N/D118M/D120N/D145R/D161R/E166K) above

CSCC[C@H](N)C(=O)O [L-Methionine, L-methionine]
absolute blockage amplitude from single L-methionine (Au(III) embedded MspA-M [1]): approximately 37 pA | amplitude, times larger than previously reported amino acid sensing using engineered α-HL (Au(III) embedded MspA-M [1]): about 10 times | dwell time of state 3, three independent measurements (Au(III) embedded MspA-M [1]): 10.05 ± 1.73 ms | ΔI1-3, three independent measurements (Au(III) embedded MspA-M [1]): 48.67±0.91 pA

N[C@@H](CCC(=O)N[C@@H](CS)C(=O)NCC(=O)O)C(=O)O [L-Glutathione, L-glutathione]
ΔI0−1, GSH/I0 (Au(III) embedded MspA-M [2]): 0.167 ± 0.023 and 0.151 ± 0.015 and 0.145 ± 0.015 | ΔI1−1, GSH (Au(III) embedded MspA-M [2]): 23.3 pA and 29.2 pA and 25.1 pA

N[C@@H](CS)C(=O)O [L-Cysteine, L-cysteine]
ΔI0−1, cys/I0 (Au(III) embedded MspA-M [2]): 0.104±0.008 and 0.105 ± 0.008 and 0.104 ± 0.007 | ΔI1−1, Cys (Au(III) embedded MspA-M [2]): 13.7 pA and 13.1 pA and 14.2 pA

NCC(=O)O [L-glycine, reference compound]
events like state 3 / extra sensing signals (Au(III) embedded MspA-M [1]): No extra sensing signals; also recorded: no events at all like state 3

N[C@@H](CCS)C(=O)O [L-Homocysteine, L-homocysteine]
ΔI0−1, Hcy/I0 (Au(III) embedded MspA-M [2]): 0.13±0.01 and 0.123 ± 0.01 and 0.129 ± 0.01 and 0.131 ± 0.01 | ΔI1−1, Hcy (Au(III) embedded MspA-M [2]): 21.8 pA and 22.7 pA and 23.6 pA

NC(=O)C[C@H](N)C(=O)O [L-asparagine, reference compound]
events like state 3 / extra sensing signals (Au(III) embedded MspA-M [1]): No extra sensing signals; also recorded: no events at all like state 3

B1: 78-nt: 78 nucleotide ssDNA composed of a random sequence (Table 6) (nucleic acid)
DNA: AAGCAGACAGGCGGGAAGGTTTTTTTTCTAGAGGGGAATTGTTATCCGCTCACAATTCCCCTATAGTGAGTCGTATTA
modifications: DNA, backbone and methylation of C not given here
ΔI/I0 ([3]; 78-nt ssDNA 4 μM, 10 μM HAuCl4, +100 mV, Blockade level 0): 0.23 ± 0.027 | Mean dwell time ([3]; 78-nt, Blockade level 0): 0.23 ± 0.025 ms | Mean dwell time ([3]; 78-nt, Blockade level 1): 0.97 ± 0.17 ms | ΔI/I0 ([3]; 78-nt, Blockade level 1): 0.37 ± 0.042 | Mean dwell time ([3]; 78-nt, Blockade level 2): 5.52 ± 1.14 ms | ΔI/I0 ([3]; 78-nt, Blockade level 2): 0.59 ± 0.019 | Mean dwell time ([3]; 78-nt, Blockade level 3): 72.81 ± 13.98 ms | ΔI/I0 ([3]; 78-nt, Blockade level 3): 0.88 ± 0.035
